Here are results for 1 compound from PMC5218480 (PLoS ONE, 2017).

In this assay the test system is MV-4-11 cells. The experiment in a line: Gene expression microarray analysis (Affymetrix PrimeView) and GSEA. In kind it is cell-based, human. On the set-up: RFU PODN (11730768_x_at) / Fold change /veh PODN (11730768_x_at) / RFU LINC00158 (11744669_a_at) / Fold change /veh LINC00158 (11744669_a_at) / RFU DUSP10 (11751237_a_at) / Fold change /veh DUSP10 (11751237_a_at) / RFU ID3 (11757404_x_at) / Fold change /veh ID3 (11757404_x_at) / RFU PLEKHG5 (11737974_s_at) / Fold change /veh PLEKHG5 (11737974_s_at) / RFU LRRC4B (11730491_at) / Fold change /veh LRRC4B (11730491_at) / RFU GIMAP4 (11747438_a_at) / Fold change /veh GIMAP4 (11747438_a_at) / RFU KRT8 (11758183_x_at) / Fold change /veh KRT8 (11758183_x_at) / RFU CNN1 (11734310_a_at) / Fold change /veh CNN1 (11734310_a_at) / RFU VPS37D (11726825_at) / Fold change /veh VPS37D (11726825_at) / RFU C10orf10 (11716522_x_at) / Fold change /veh C10orf10 (11716522_x_at) / RFU KIR2DL2 /// KIR2DL4 /// KIR2DL5A /// KIR2DL5B /// KIR2DS1 /// KIR2DS2 /// KIR2DS3 /// KIR2DS4 /// KIR3DL3 /// KIR3DL3 /// KIR3DS1 (11738374_at) / Fold change /veh KIR2DL2 /// KIR2DL4 /// KIR2DL5A /// KIR2DL5B /// KIR2DS1 /// KIR2DS2 /// KIR2DS3 /// KIR2DS4 /// KIR3DL3 /// KIR3DL3 /// KIR3DS1 (11738374_at) / RFU C1QL1 (11718748_at) / Fold change /veh C1QL1 (11718748_at) / RFU TMPRSS4 (11747572_a_at) / Fold change /veh TMPRSS4 (11747572_a_at) / RFU HAMP (11756126_x_at) / Fold change /veh HAMP (11756126_x_at) / RFU RNFT2 (11725882_a_at) / Fold change /veh RNFT2 (11725882_a_at) / RFU NR4A2 (11747474_a_at) / Fold change /veh NR4A2 (11747474_a_at) / RFU ABCC12 (11746883_a_at) / Fold change /veh ABCC12 (11746883_a_at) / RFU TMEM136 (11760407_x_at) / Fold change /veh TMEM136 (11760407_x_at) / RFU CLDN22 /// WWC2 (11732394_at) / Fold change /veh CLDN22 /// WWC2 (11732394_at) / RFU HLA-DPB1 (11760878_x_at) / Fold change /veh HLA-DPB1 (11760878_x_at) / RFU SPINT1 (11716480_a_at) / Fold change /veh SPINT1 (11716480_a_at) / RFU GAP43 (11754022_s_at) / Fold change /veh GAP43 (11754022_s_at) / RFU A4GNT (11735810_at) / Fold change /veh A4GNT (11735810_at) / RFU PRB3 (11715151_x_at) / Fold change /veh PRB3 (11715151_x_at) / RFU TUBB4B (11761932_at) / Fold change /veh TUBB4B (11761932_at) / RFU CAPN14 (11732068_a_at) / Fold change /veh CAPN14 (11732068_a_at) / RFU TMCC2 (11721928_a_at) / Fold change /veh TMCC2 (11721928_a_at) / RFU IRGQ (11745062_a_at) / Fold change /veh IRGQ (11745062_a_at) / RFU FAM174B (11720279_a_at) / Fold change /veh FAM174B (11720279_a_at) / RFU TMPRSS4 (11748680_a_at) / Fold change /veh TMPRSS4 (11748680_a_at) / RFU FAM212B (11763350_a_at) / Fold change /veh FAM212B (11763350_a_at) / RFU PLEKHG5 (11743358_a_at) / Fold change /veh PLEKHG5 (11743358_a_at) / RFU ZSCAN30 (11745921_a_at) / Fold change /veh ZSCAN30 (11745921_a_at) / RFU CMKLR1 (11741424_a_at) / Fold change /veh CMKLR1 (11741424_a_at) / RFU LOC101060620 /// MAPK8IP1 (11723275_at) / Fold change /veh LOC101060620 /// MAPK8IP1 (11723275_at) / RFU SPTSSB (11747773_x_at) / Fold change /veh SPTSSB (11747773_x_at) / RFU PRSS12 (11739890_at) / Fold change /veh PRSS12 (11739890_at) / RFU BIN1 (11741810_x_at) / Fold change /veh BIN1 (11741810_x_at) / RFU WNT11 (11732464_a_at) / Fold change /veh WNT11 (11732464_a_at) / RFU C10orf10 (11716521_a_at) / Fold change /veh C10orf10 (11716521_a_at) / RFU C5orf56 (11738089_at) / Fold change /veh C5orf56 (11738089_at) / RFU CYB561 (11721691_x_at) / Fold change /veh CYB561 (11721691_x_at) / RFU ANKRD19P (11752326_a_at) / Fold change /veh ANKRD19P (11752326_a_at) / RFU OR2T12 /// OR2T33 /// OR2T8 (11738714_s_at) / Fold change /veh OR2T12 /// OR2T33 /// OR2T8 (11738714_s_at) / RFU VCAN (11748164_a_at) / Fold change /veh VCAN (11748164_a_at) / RFU JSRP1 (11732532_at) / Fold change /veh JSRP1 (11732532_at) / RFU KRTAP10-11 (11738290_x_at) / Fold change /veh KRTAP10-11 (11738290_x_at) / RFU MYO3A (11730013_a_at) / Fold change /veh MYO3A (11730013_a_at) / RFU EBF3 (11725865_a_at) / Fold change /veh EBF3 (11725865_a_at) / RFU CAMK2N1 (11719241_x_at) / Fold change /veh CAMK2N1 (11719241_x_at) / RFU C5orf56 (11738088_a_at) / Fold change /veh C5orf56 (11738088_a_at) / RFU OLFML3 (11715873_a_at) / Fold change /veh OLFML3 (11715873_a_at) / RFU LOC100653217 /// NTM (11731650_a_at) / Fold change /veh LOC100653217 /// NTM (11731650_a_at) / RFU MAPK11 (11762145_a_at) / Fold change /veh MAPK11 (11762145_a_at) / RFU FIZ1 (11724087_x_at) / Fold change /veh FIZ1 (11724087_x_at) / RFU OASL (11726364_x_at) / Fold change /veh OASL (11726364_x_at) / RFU SOX15 (11748057_x_at) / Fold change /veh SOX15 (11748057_x_at) / RFU CD79A (11719716_a_at) / Fold change /veh CD79A (11719716_a_at) / RFU HIST1H1D (11736915_at) / Fold change /veh HIST1H1D (11736915_at) / RFU CASKIN2 (11723855_a_at) / Fold change /veh CASKIN2 (11723855_a_at) / RFU LOC730098 (11760151_x_at) / Fold change /veh LOC730098 (11760151_x_at) / RFU OR4N2 (11742367_at) / Fold change /veh OR4N2 (11742367_at) / RFU PRRT2 (11749266_a_at) / Fold change /veh PRRT2 (11749266_a_at) / RFU SNX32 (11753110_a_at) / Fold change /veh SNX32 (11753110_a_at) / RFU CDHR5 (11726645_a_at) / Fold change /veh CDHR5 (11726645_a_at) / RFU RCAN1 (11760418_a_at) / Fold change /veh RCAN1 (11760418_a_at) / RFU FAM167A (11723789_a_at) / Fold change /veh FAM167A (11723789_a_at) / RFU FAM26E (11764081_at) / Fold change /veh FAM26E (11764081_at) / RFU ISYNA1 (11749810_s_at) / Fold change /veh ISYNA1 (11749810_s_at) / RFU ACY1 (11761880_at) / Fold change /veh ACY1 (11761880_at) / RFU 11764098_at / Fold change /veh 11764098_at / RFU SAMD14 (11745864_x_at) / Fold change /veh SAMD14 (11745864_x_at) / RFU NPB (11741838_a_at) / Fold change /veh NPB (11741838_a_at) / RFU TMPRSS6 (11731388_a_at) / Fold change /veh TMPRSS6 (11731388_a_at) / RFU KRTAP10-2 (11738614_at) / Fold change /veh KRTAP10-2 (11738614_at) / RFU ARHGAP8 /// PRR5-ARHGAP8 (11727945_x_at) / Fold change /veh ARHGAP8 /// PRR5-ARHGAP8 (11727945_x_at) / RFU KRTAP5-7 /// NADSYN1 (11734609_at) / Fold change /veh KRTAP5-7 /// NADSYN1 (11734609_at) / RFU RASL12 (11751679_a_at) / Fold change /veh RASL12 (11751679_a_at) / RFU CDKN2B (11736163_a_at) / Fold change /veh CDKN2B (11736163_a_at) / RFU PRF1 (11729649_at) / Fold change /veh PRF1 (11729649_at) / RFU, ZNF638 /// ZNF638-IT1 / Fold change vs veh, ZNF638 /// ZNF638-IT1 / RFU, PANK3 / Fold change vs veh, PANK3 / RFU, SH3YL1 / Fold change vs veh, SH3YL1 / RFU, ZEB2 / Fold change vs veh, ZEB2 / RFU, NRIP1 / Fold change vs veh, NRIP1 / RFU, PTTG1IP / Fold change vs veh, PTTG1IP / RFU, CAPN2 / Fold change vs veh, CAPN2 / RFU, MED14 / Fold change vs veh, MED14 / RFU, SNORA58 / Fold change vs veh, SNORA58 / RFU, C1orf63 / Fold change vs veh, C1orf63 / RFU, LRRFIP1 / Fold change vs veh, LRRFIP1 / RFU, NDUFAF7 / Fold change vs veh, NDUFAF7 / RFU, SLC12A2 / Fold change vs veh, SLC12A2 / RFU, IBTK / Fold change vs veh, IBTK / RFU, ESF1 / Fold change vs veh, ESF1 / Fold change vs veh, TMEM50B / RFU, TAOK1 / Fold change vs veh, TAOK1 / RFU, ACBD3 / Fold change vs veh, ACBD3 / RFU, TMA16 / Fold change vs veh, TMA16 / RFU, RWDD3 / Fold change vs veh, RWDD3 / RFU, BCAT1 / Fold change vs veh, BCAT1 / RFU, EDEM3 / Fold change vs veh, EDEM3 / RFU, TMEM33 / Fold change vs veh, TMEM33 / RFU, WDR75 / Fold change vs veh, WDR75 / RFU, AHCTF1 / Fold change vs veh, AHCTF1 / RFU, TFRC / Fold change vs veh, TFRC / RFU, ZDHHC17 / Fold change vs veh, ZDHHC17 / RFU, NOM1 / Fold change vs veh, NOM1 / RFU, ARL8B / Fold change vs veh, ARL8B / RFU, ZBTB11 / Fold change vs veh, ZBTB11 / RFU, TAMM41 / Fold change vs veh, TAMM41 / RFU, KIAA1704 /// LOC100996395 / Fold change vs veh, KIAA1704 /// LOC100996395 / RFU, ING1 / Fold change vs veh, ING1 / RFU, TRMT61B / Fold change vs veh, TRMT61B / RFU, FUBP3 / Fold change vs veh, FUBP3 / RFU, TP53 / Fold change vs veh, TP53 / RFU, TNKS2 / Fold change vs veh, TNKS2 / RFU, ZFP14 / Fold change vs veh, ZFP14 / RFU, ACTR2 / Fold change vs veh, ACTR2 / RFU, PPP3R1 / Fold change vs veh, PPP3R1 / RFU, PIK3R1 / Fold change vs veh, PIK3R1 / RFU, HNRNPA1 / Fold change vs veh, HNRNPA1 / RFU, RNF170 / Fold change vs veh, RNF170 / RFU, ZNF28 / Fold change vs veh, ZNF28 / RFU, RNGTT / Fold change vs veh, RNGTT / RFU, OGT / Fold change vs veh, OGT / RFU, BRD1 / Fold change vs veh, BRD1 / RFU, MARS / Fold change vs veh, MARS / RFU, ZNF655 / Fold change vs veh, ZNF655 / RFU, FAHD1 / Fold change vs veh, FAHD1 / RFU, BDP1 / Fold change vs veh, BDP1 / RFU, LRRCC1 / Fold change vs veh, LRRCC1 / RFU, ARID1A / Fold change vs veh, ARID1A / RFU, ZNF146 / Fold change vs veh, ZNF146 / RFU, ZNF330 / Fold change vs veh, ZNF330 / RFU, GPN3 / Fold change vs veh, GPN3 / RFU, C9orf123 / Fold change vs veh, C9orf123 / RFU, N4BP2L2 / Fold change vs veh, N4BP2L2 / RFU, ARFIP1 / Fold change vs veh, ARFIP1 / RFU, FAM179B / Fold change vs veh, FAM179B / RFU, BCL10 / Fold change vs veh, BCL10 / RFU, UHRF1BP1L / Fold change vs veh, UHRF1BP1L / RFU, BET1 / Fold change vs veh, BET1 / RFU, CNOT2 / Fold change vs veh, CNOT2 / RFU, ZNF268 / Fold change vs veh, ZNF268 / Fold change vs veh, ZNF507 / RFU, DGCR2 / Fold change vs veh, DGCR2 / RFU, WDSUB1 / Fold change vs veh, WDSUB1 / Fold change vs veh, HSP90B1 /// MIR3652 / RFU, ADSS / Fold change vs veh, ADSS / RFU, GK / Fold change vs veh, GK / RFU, ZNF148 / Fold change vs veh, ZNF148 / RFU, TAF9 / Fold change vs veh, TAF9 / RFU, SLC1A5 / Fold change vs veh, SLC1A5 / RFU, SLMO2 / Fold change vs veh, SLMO2 / RFU, ABCC4 / Fold change vs veh, ABCC4 / RFU, LOC101060439 /// RAP1B / Fold change vs veh, LOC101060439 /// RAP1B / RFU, RFX7 / Fold change vs veh, RFX7 / RFU, GTPBP10 / Fold change vs veh, GTPBP10 / RFU, CNEP1R1 / Fold change vs veh, CNEP1R1 / RFU, BIVM-ERCC5 /// ERCC5 / Fold change vs veh, BIVM-ERCC5 /// ERCC5 / RFU, ILF3 / Fold change vs veh, ILF3 / RFU 11762660_at / Fold change /veh 11762660_at / RFU VCAN (11757783_s_at) / Fold change /veh VCAN (11757783_s_at) / RFU DDX43 (11728927_at) / Fold change /veh DDX43 (11728927_at) / RFU KRT8 (11758188_x_at) / Fold change /veh KRT8 (11758188_x_at) / RFU NKD1 (11759106_at) / Fold change /veh NKD1 (11759106_at) / RFU SRD5A1 (11742802_a_at) / Fold change /veh SRD5A1 (11742802_a_at) / RFU TPSAB1 /// TPSB2 (11721975_s_at) / Fold change /veh TPSAB1 /// TPSB2 (11721975_s_at) / RFU GSTM3 (11746129_a_at) / Fold change /veh GSTM3 (11746129_a_at) / RFU IL23R (11737362_x_at) / Fold change /veh IL23R (11737362_x_at) / RFU TMEM51 (11727254_a_at) / Fold change /veh TMEM51 (11727254_a_at) / RFU PIWIL2 (11732686_x_at) / Fold change /veh PIWIL2 (11732686_x_at) / RFU ORM1 (11744905_x_at) / Fold change /veh ORM1 (11744905_x_at) / RFU CCDC152 (11743942_at) / Fold change /veh CCDC152 (11743942_at) / RFU ECM1 (11717891_a_at) / Fold change /veh ECM1 (11717891_a_at) / RFU IL23R (11748794_a_at) / Fold change /veh IL23R (11748794_a_at) / RFU TNFAIP8L3 (11732012_x_at) / Fold change /veh TNFAIP8L3 (11732012_x_at) / RFU MBOAT4 (11741988_at) / Fold change /veh MBOAT4 (11741988_at) / RFU 11764193_at / Fold change /veh 11764193_at / RFU TMEM53 (11763286_at) / Fold change /veh TMEM53 (11763286_at) / RFU MAGEB2 (11727129_at) / Fold change /veh MAGEB2 (11727129_at) / RFU TMEM200A (11744735_a_at) / Fold change /veh TMEM200A (11744735_a_at) / RFU CCDC152 (11751479_a_at) / Fold change /veh CCDC152 (11751479_a_at) / RFU FAM211A (11726209_a_at) / Fold change /veh FAM211A (11726209_a_at) / RFU RGS16 (11746705_a_at) / Fold change /veh RGS16 (11746705_a_at) / RFU VCAN (11755009_s_at) / Fold change /veh VCAN (11755009_s_at) / RFU RHOB (11743442_s_at) / Fold change /veh RHOB (11743442_s_at) / RFU RGS16 (11720943_a_at) / Fold change /veh RGS16 (11720943_a_at) / RFU RGS16 (11720944_at) / Fold change /veh RGS16 (11720944_at) / RFU, VPS4B / Fold change vs veh, VPS4B / RFU, CREB1 / Fold change vs veh, CREB1 / RFU, DNAJC13 / Fold change vs veh, DNAJC13 / RFU, GNAQ / Fold change vs veh, GNAQ / RFU, CDK5R1 / Fold change vs veh, CDK5R1 / RFU, ZRANB3 / Fold change vs veh, ZRANB3 / RFU, CUL4A / Fold change vs veh, CUL4A / RFU, CCNY / Fold change vs veh, CCNY / RFU, UFL1 / Fold change vs veh, UFL1 / RFU, COG3 / Fold change vs veh, COG3 / RFU, DIAPH2 / Fold change vs veh, DIAPH2 / RFU, SKA2 / Fold change vs veh, SKA2 / RFU, AFF3 / Fold change vs veh, AFF3 / RFU, LMF1 / Fold change vs veh, LMF1 / RFU, IPO11 / Fold change vs veh, IPO11 / RFU, DFFB / Fold change vs veh, DFFB / RFU, FOXP1 / Fold change vs veh, FOXP1 / RFU, CARD8 / Fold change vs veh, CARD8 / RFU, STRN3 / Fold change vs veh, STRN3 / RFU, ADK / Fold change vs veh, ADK / RFU, RASSF2 / Fold change vs veh, RASSF2 / RFU, WIPF1 / Fold change vs veh, WIPF1 / RFU, LARP1B / Fold change vs veh, LARP1B / RFU, RASA1 / Fold change vs veh, RASA1 / RFU, RB1 / Fold change vs veh, RB1 / RFU, PPFIA1 / Fold change vs veh, PPFIA1 / RFU, MAT2A / Fold change vs veh, MAT2A / RFU, CCT5 / Fold change vs veh, CCT5 / RFU, WDR92 / Fold change vs veh, WDR92 / RFU, CUX1 / Fold change vs veh, CUX1 / RFU, TTC7A / Fold change vs veh, TTC7A / RFU, TMEM135 / Fold change vs veh, TMEM135 / RFU, DEPTOR / Fold change vs veh, DEPTOR / RFU, CPM / Fold change vs veh, CPM / RFU, DNAJB6 / Fold change vs veh, DNAJB6 / RFU, CACNA2D3 / Fold change vs veh, CACNA2D3 / RFU, DTX4 / Fold change vs veh, DTX4 / RFU, TFCP2 / Fold change vs veh, TFCP2 / RFU, GMCL1 /// GMCL1P1 / Fold change vs veh, GMCL1 /// GMCL1P1 / RFU, AEBP2 / Fold change vs veh, AEBP2 / RFU, SNHG1 /// SNORD22 /// SNORD25 /// SNORD26 /// SNORD27 /// SNORD28 /// SNORD29 /// SNORD31 / Fold change vs veh, SNHG1 /// SNORD22 /// SNORD25 /// SNORD26 /// SNORD27 /// SNORD28 /// SNORD29 /// SNORD31 / Fold change (Aza/veh), C12orf56 (ProbeSet 11735607_a_at) / Fold change (ACY-1035/veh), C12orf56 (ProbeSet 11735607_a_at) / Fold change (Aza/veh), FGFR1OP (ProbeSet 11751329_s_at) / Fold change (ACY-1035/veh), FGFR1OP (ProbeSet 11751329_s_at) / Fold change (Aza/veh), VPS36 (ProbeSet 11739960_a_at) / Fold change (ACY-1035/veh), VPS36 (ProbeSet 11739960_a_at) / RFU SYPL1 (11715823_x_at) / Fold change /veh SYPL1 (11715823_x_at) / RFU IGFBP7 (11715501_s_at) / Fold change /veh IGFBP7 (11715501_s_at) / RFU REEP3 (11722064_at) / Fold change /veh REEP3 (11722064_at) / RFU IGLL1 (11728026_x_at) / Fold change /veh IGLL1 (11728026_x_at): dose or concentration left out as unconfirmed. The following applies: MV-4-11 cells, 48 hours.

`Nc1ccc(-c2cccs2)cc1NC(=O)c1ccc2c(c1)cc(C1CC1)n2CCN1CCOCC1` [ACY-1035]: the “Fold change /veh OR4N2 (11742367_at)” value turned out to be 1.06.
